Measured values: patent US8937073B2, “Disubstituted tetrahydrofuranyl compounds and their use as B1-receptor antagonists” (Boehringer Ingelheim International GmbH, priority 2010, dated 2015)

Molecular target: T1, cynomolgus B1 receptor (Macaca fascicularis, UniProt Q3BCU0)
T1 construct: expressed in transfected cells; host or cells: CHO cells
T1 sequence (Q3BCU0 1-352): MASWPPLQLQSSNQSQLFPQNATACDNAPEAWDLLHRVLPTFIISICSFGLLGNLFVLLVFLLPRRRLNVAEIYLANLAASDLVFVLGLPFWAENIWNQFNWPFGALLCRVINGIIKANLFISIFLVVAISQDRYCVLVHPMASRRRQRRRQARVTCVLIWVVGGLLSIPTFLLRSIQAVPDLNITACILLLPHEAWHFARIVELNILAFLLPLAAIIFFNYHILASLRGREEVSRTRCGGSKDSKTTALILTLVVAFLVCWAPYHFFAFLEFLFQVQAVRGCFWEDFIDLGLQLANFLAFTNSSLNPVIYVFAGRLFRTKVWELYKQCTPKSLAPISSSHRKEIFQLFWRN
Experiment: cynoBK1-receptor binding assay
Conditions: homogenate of CHO cells expressing the cynomolgus B1 receptor; radioligand 0.5 to 5.0 nM kallidine (DesArg10,Leu9), [3,4-Prolyl-3,43H(N)]; 60-180 minutes at ambient temperature
Experimental: Description of the Method of Binding the cynoBK1-Receptor
CHO cells that express the cynomolgus B1 receptor are cultivated in “HAM′S F-12 Medium”. The medium is removed from confluent cultures, the cells are washed with PBS buffer, scraped off or detached using Versene and isolated by centrifuging. Then the cells are homogenised in suspension, the homogenate is centrifuged and resuspended. After the protein content has been determined 200 μl of the homogenate (50 to 250 μg protein/assay) are incubated for 60-180 minutes at ambient temperature with 0.5 to 5.0 nM kallidine (DesArg10,Leu9), [3,4-Prolyl-3,43H(N)] and increasing concentrations of the test substance in a total volume of 250 μl. The incubation is stopped by rapid filtration through GF/B glass fibre filters that have been pre-treated with polyethyleneimine (0.3%). The radioactivity bound to the protein is measured with a TopCount NXT. The radioactivity bound in the presence of 1.0 μM kallidine (DesArg10) is defined as non-specific binding. The concentration binding curve may be analysed using computer-aided non-linear curve fitting to determine the corresponding Ki value for the test substance.
Test Results of the cynoBK1-Receptor Binding Assay: […]

Molecule	Ki [nM]
COc1ccc(Nc2ccc(CNC(=O)[C@]3(NC(=O)c4cn[nH]c(=O)c4)CCOC3)c(F)c2)c(C(F)(F)F)c1 [Example 21]	1.6
(S)-5-amino-N-(3-{[3-chloro-5-(4-methoxy-2-trifluoromethyl-phenylamino)-pyridin-2-yl-methyl]-carbamoyl}-tetrahydrofuran-3-yl)-nicotinamide [Example 6]	18
(S)-5-amino-N-(3-{[3-fluoro-5-(4-methoxy-2-trifluoromethyl-phenylamino)-pyridin-2-ylmethyl]-carbamoyl}-tetrahydrofuran-3-yl)-nicotinamide [Example 3]	4.7
(S)-5-amino-N-{3-[4-(4-methoxy-2-trifluoromethyl-phenylamino)-benzylcarbamoyl]-tetrahydrofuran-3-yl}-nicotinamide [Example 4]	3.6
(S)-6-oxo-1,6-dihydro-pyridazine-4-carboxylic acid-{3-[2-fluoro-4-(4-methoxy-2-trifluoromethyl-phenylamino)-benzylcarbamoyl]-tetrahydrofuran-3-yl}-amide [Example 1]	1
